{"source": "patent US10010527B2", "about": "“Active metabolite of 1-[(2-bromophenyl)sulfonyl]-5-methoxy-3-[(4-methyl-1-piperazinyl)methyl]-1H-indole dimesylate monohydrate and dimesylate dihydrate salt of active metabolite” (SUVEN LIFE SCIENCES LIMITED, priority 2014, dated 2018)", "system": "rats", "experiment": "Radial arm maze (reversal of scopolamine induced amnesia)", "type": "in vivo, rat", "details": "p.o.", "excerpt": "Example 4: Radial Arm Maze\nThe cognition enhancing properties of formula (I) and formula (II) of this invention were estimated by using this model.\nRadial arm maze consists of a central hub of 45 centimeter diameter. Each arm was of dimension 42.5×15×24 centimeter. The maze was elevated to a height of 1 meter above the ground. The animals were placed on a restricted diet until they reached approximately 85% of their free feeding weight. During this diet restriction period animals were habituated to the novel feed (pellets). Once the rats reached approximately 85% of their free feeding weight rats were habituated to the maze on the 1st and 2nd day. […] Animals were randomized on day 2. On the subsequent days the treatment was given as per the allotment. Each animal was introduced into the maze individually for a period of 10 minutes. The arms were baited only once and the animal had to learn the rule that repeated arm entries would not be rewarded. The trial ended once the rat had visited 16 arms or 10 minutes were over or all the pellets were eaten. The arm entries were recorded using the software.", "data": [{"smiles": "COc1ccc2c(c1)c(CN1CCNCC1)cn2S(=O)(=O)c1ccccc1Br", "note": "[Example 1, 1-[(2-Bromophenyl)sulfonyl]-5-methoxy-3-[(1-piperazinyl)methyl]-1H-indole]", "values": [{"measurement": "Reversal of Scopolamine Induced amnesia - Effective dose range", "value": "10-20 mg/kg, p.o."}]}, {"smiles": "COc1ccc2c(c1)c(CN1CCNCC1)cn2S(=O)(=O)c1ccccc1Br", "note": "[Example 2, 1-[(2-Bromophenyl)sulfonyl]-5-methoxy-3-[(1-piperazinyl)methyl]-1H-indole dimesylate dihydrate]", "values": [{"measurement": "Reversal of Scopolamine Induced amnesia - Effective dose range", "setting": "dimesylate dihydrate", "value": "5-20 mg/kg, p.o."}]}]}
